Laboratory results from US10196436B2, “Inhibitors of the fibroblast growth factor receptor” (BLUEPRINT MEDICINES CORPORATION, priority 2012, dated 2019).
Like-named read-outs stand apart in the source and are kept apart here.

Assays:
[1] = biological target: wild type FGFR-4 (Homo sapiens (Human), UniProt P22455); experiment: FGFR-4 wild type assay at Km (Caliper electrophoretic mobility shift); format: biochemical; settings: for IC50: read-out: FGFR4 IC50; for Ratio FGFR1/FGFR4: [IC50 for FGFR1]/[IC50 for FGFR4]
wild type FGFR-4, sequence (P22455 22-802): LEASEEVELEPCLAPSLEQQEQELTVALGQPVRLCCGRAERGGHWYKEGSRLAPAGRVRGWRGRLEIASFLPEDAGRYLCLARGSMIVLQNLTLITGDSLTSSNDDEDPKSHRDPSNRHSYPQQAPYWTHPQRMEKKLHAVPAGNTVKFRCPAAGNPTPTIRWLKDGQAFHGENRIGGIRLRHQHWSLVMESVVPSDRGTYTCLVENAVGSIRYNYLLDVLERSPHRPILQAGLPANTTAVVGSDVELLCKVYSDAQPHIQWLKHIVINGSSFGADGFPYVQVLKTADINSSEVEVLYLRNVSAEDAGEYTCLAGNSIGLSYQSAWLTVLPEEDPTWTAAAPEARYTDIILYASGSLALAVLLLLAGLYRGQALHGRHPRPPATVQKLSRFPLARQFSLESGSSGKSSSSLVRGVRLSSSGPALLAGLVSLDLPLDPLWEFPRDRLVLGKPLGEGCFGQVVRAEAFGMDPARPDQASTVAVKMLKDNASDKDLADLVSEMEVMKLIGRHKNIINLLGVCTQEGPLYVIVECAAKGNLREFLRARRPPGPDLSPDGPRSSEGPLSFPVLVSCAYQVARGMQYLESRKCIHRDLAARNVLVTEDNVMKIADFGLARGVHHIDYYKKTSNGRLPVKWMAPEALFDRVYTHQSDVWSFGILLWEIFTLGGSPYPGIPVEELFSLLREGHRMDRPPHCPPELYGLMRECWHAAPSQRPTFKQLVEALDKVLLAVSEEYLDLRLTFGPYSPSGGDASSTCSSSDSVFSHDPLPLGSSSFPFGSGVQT
Experimental: (§1) In order to assess the activity of chemical compounds against the relevant kinase of interest, the Caliper LifeSciences electrophoretic mobility shift technology platform is utilized. Fluorescently labeled substrate peptide is incubated in the presence dosed levels of compounds, a set concentration of kinase and of ATP, so that a reflective proportion of the peptide is phosphorylated. At the end of the reaction, the mix of phosphorylated (product) and non-phosphorylated (substrate) peptides are passed through the microfluidic system of the Caliper LabChip® EZ Reader II, under an applied potential difference. The presence of the phosphate group on the product peptide provides a difference in mass and charge between the product peptide and the substrate peptide, resulting in a separation of the substrate and product pools in the sample. As the pools pass the LEDS within the instrument, these pools are detected and resolved as separate peaks. The ratio between these peaks therefore reflects the activity of the chemical matter at that concentration in that well, under those conditions.
(§2) The reaction was stopped by the addition of 70 ul of Stop buffer (100 mM HEPES pH 7.5, 0.015% Brij 35, 35 mM EDTA and 0.2% of Coating Reagent 3 (Caliper Lifesciences)). The plate was then read on a Caliper LabChip® EZ Reader II (protocol settings: −1.9 psi, upstream voltage −700, downstream voltage −3000, post sample sip 35 s).

[2] = tested on: panel of kinase assays; experiment: Kinase panel selectivity score from percent of DMSO control; settings: kinases with POC less than 10 at 3 μM divided by total distinct kinases tested
[3] = tested on: MDA-MB-453 cells, which harbor an activating FGFR4 mutation; experiment: Cellular potency: phosphorylation of Erk in MDA-MB-453 cells (immunoblot); settings: Homo sapiens, MDA-MB-453, 1 h, read-out: Potency (pErk IC50)
Experimental: Dose response in MDA-MB-453 cells, which harbor an activating FGFR4 mutation, was measured as follows. Briefly, MDA-MB-453 cells were seeded at 2.5×10^6 cells/6 well, and starved overnight. Compounds were added at varying concentrations (3000, 1000, 300, 100, and 30 nM) for 1 hour. Samples were collected and lysed for immunoblot analysis. The phosphorylation of Erk was measured and the average pErk value of three replicates was plotted with three parameter dose-response (inhibition) curve fit using Prism GraphPad software, which was used to determine the IC50 values.

[4] = biological target: wild type FGFR-1 (Homo sapiens (Human), UniProt P11362); experiment: FGFR-1 wild type assay at Km (Caliper electrophoretic mobility shift); format: biochemical; settings: 400 uM ATP, 90 minutes, 25 C; read-out: FGFR1 IC50
wild type FGFR-1, sequence (P11362 22-822): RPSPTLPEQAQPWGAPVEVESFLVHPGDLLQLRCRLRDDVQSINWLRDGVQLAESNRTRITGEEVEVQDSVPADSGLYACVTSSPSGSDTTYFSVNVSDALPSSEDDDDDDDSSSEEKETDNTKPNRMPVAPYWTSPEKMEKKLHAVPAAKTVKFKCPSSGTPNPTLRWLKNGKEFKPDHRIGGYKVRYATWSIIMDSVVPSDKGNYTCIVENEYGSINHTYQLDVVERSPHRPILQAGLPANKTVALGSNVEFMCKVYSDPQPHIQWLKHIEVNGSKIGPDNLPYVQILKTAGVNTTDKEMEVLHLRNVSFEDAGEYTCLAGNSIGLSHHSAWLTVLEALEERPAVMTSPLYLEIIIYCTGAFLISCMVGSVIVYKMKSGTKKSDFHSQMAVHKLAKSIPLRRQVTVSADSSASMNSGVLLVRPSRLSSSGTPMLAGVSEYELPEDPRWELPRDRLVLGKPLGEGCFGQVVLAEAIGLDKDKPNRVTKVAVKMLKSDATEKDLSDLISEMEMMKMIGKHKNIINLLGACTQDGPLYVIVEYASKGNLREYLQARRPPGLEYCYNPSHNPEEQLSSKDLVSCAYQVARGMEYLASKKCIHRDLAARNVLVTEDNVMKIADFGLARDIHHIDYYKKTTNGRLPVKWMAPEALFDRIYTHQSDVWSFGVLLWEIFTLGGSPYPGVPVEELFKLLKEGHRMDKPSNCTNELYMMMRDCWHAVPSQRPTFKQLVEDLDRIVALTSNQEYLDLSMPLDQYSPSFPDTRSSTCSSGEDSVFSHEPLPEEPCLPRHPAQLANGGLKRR
Experimental: as §1
as §2, with “EZReader 2” for “LabChip® EZ Reader II”

[5] = biological target: FGFR-4 (Homo sapiens (Human), UniProt P22455); experiment: Crystal structure of compound bound to FGFR-4; format: binding
FGFR-4, sequence (P22455 22-802): as the sequence (P22455 22-802) above

[6] = biological target: GST-tagged recombinant wild type FGFR-4 (Homo sapiens (Human), UniProt P22455); experiment: Covalency: mass spectrometry of protein-inhibitor complex; format: binding; settings: 300 uM compound, 75 uM FGFR-4, 3 hours room temperature then 13 hours 4° C.
GST-tagged recombinant wild type FGFR-4, sequence (P22455 460-802): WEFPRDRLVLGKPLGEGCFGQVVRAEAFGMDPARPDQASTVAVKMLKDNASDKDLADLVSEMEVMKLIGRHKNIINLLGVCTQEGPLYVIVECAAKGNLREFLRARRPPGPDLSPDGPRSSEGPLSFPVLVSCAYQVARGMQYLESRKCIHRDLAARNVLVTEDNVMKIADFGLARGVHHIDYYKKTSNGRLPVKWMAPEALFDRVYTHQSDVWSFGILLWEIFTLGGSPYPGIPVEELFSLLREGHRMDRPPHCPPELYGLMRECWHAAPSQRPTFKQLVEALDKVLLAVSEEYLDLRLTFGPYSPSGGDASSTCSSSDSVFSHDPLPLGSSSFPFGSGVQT
Experimental: The protein-inhibitor complex was then desalted using Pierce detergent removal columns (Thermo Pierce). The unmodified protein and protein-inhibitor complex were analyzed by electron spray mass spectrometry to determine their respective molecular weights.

[7] = tested on: Hep3B xenograft tumors; experiment: Hep3B liver cancer cell subcutaneous xenograft model, tumor growth inhibition; format: in vivo, Mus Musculus
Experimental: […] female nude mice (Mus Musculus) age 6 to 8 weeks were used. Tumor cell culture and inoculation: Hep3B cells were cultured with EMEM medium (Invitrogen, USA) supplemented with 10% FBS (Gibco, Australia). The cells were harvested in 90% confluence, and the viability was no less than 90%. Mice were implanted subcutaneously (s.c.) with 200 μL of 10×10^6 Hep3B cells in 50% Matrigel in the right flank at the beginning of the study.
Animal grouping and dosing schedule: Ten days after cell implantation, when tumors reached an average volume of 199 mm^3, 45 mice were selected based on tumor volume and randomly assigned to 5 treatment groups (n=9). The day of randomization was denoted as Do and the treatment was started from then on.
Tumor volume and body weight measurements: Tumor size was measured twice per week in two dimensions using a caliper, and the volume was expressed in mm^3 using the formula: V=0.5 a×b^2 where a and b were the long and short diameters of the tumor, respectively. Body weight was measured at least twice weekly.

[8] = tested on: Hep3B cells; experiment: Induction of apoptosis, Caspase-Glo3/7 assay in Hep3B cells; format: cell-based; settings: 6 hours
Experimental: Hep3B cells were seeded at 20 k/well in 96-well white plates in 200 ul of DMEM/5% FBS overnight. The next day compound was added at a final DMSO concentration of 0.1% and incubated for 6 hours. Caspase activity was measured according to manufacture instruction (Caspase-Glo3/7 Assay (Promega)). Briefly, 100 ul of Caspase-Glo3/7 reagent was added to each well and incubated for 1 hour in the dark. Luminescence was measured using EnVision.

Row | SMILES | IC50 ([1]; 400 uM ATP, 90 minutes, 25 C) | Ratio FGFR1/FGFR4 [1] | IC50 [3] | IC50 [4] | also measured
1 | C=CC(=O)N(CCCCN(CC)CC)c1ncc2cc(-c3c(Cl)c(OC)cc(OC)c3Cl)c(NC(=O)NC(C)(C)C)nc2n1 [COMPOUND 55, N-(7-(3-(tert-butyl)ureido)-6-(2,6-dichloro-3,5-dimethoxyphenyl)pyrido[2,3-d]pyrimidin-2-yl)-N-(4-(diethylamino)butyl) acrylamide] | < 10 nM | A (the ratio is >500) |  |  | selectivity score [S(10) @3 μM] [2]: ≤ 0.030
2 | C#CC(=O)NCc1cccn2c(-c3cc(NC(=O)NCC(F)(F)F)cc(OC(C)C)c3)cnc12 [COMPOUND 20, N-((3-(3-isopropoxy-5-(3-(2,2,2-trifluoroethyl)ureido)phenyl)imidazo[1,2-a]pyridin-8-yl)methyl)propiolamide] |  |  | > 100 nM | > 1000 nM | 
3 | C=CC(=O)Nc1cccc(C)c1Nc1ncc2cc(-c3c(Cl)c(OC)cc(OC)c3Cl)cc(F)c2n1 [COMPOUND 34, N-(2-((6-(2,6-dichloro-3,5-dimethoxyphenyl)-8-fluoroquinazolin-2-yl)amino)-3-methylphenyl)acrylamide] |  |  | 1 to 10 nM |  | IC50 [1]: < 10 nM
4 | C=CC(=O)N(CCCCN(CC)CC)c1ncc2cc(-c3cc(OC)cc(OC)c3)c(NC(=O)NC(C)(C)C)nc2n1 [COMPOUND 52, N-(7-(3-(tert-butyl)ureido)-6-(3,5-dimethoxyphenyl)pyrido[2,3-d]pyrimidin-2-yl)-N-(4-(diethylamino)butyl)acrylamide] | < 10 nM | C (the ratio is ≥100 and <200) |  |  | residue bound in crystal structure [5]: binds to the cysteine at residue 552 of FGFR-4; mass difference between protein-inhibitor complex and unmodified protein [6]: 575.1252 daltons
5 | C=CC(=O)Nc1ccccc1-c1ccn2c(-c3cc(NC(=O)NCC(F)(F)F)cc(OC(C)C)c3)cnc2c1 [COMPOUND 38, N-(2-(3-(3-isopropoxy-5-(3-(2,2,2-trifluoroethyl)ureido)phenyl)imidazo[1,2-a]pyridin-7-yl)phenyl)acrylamide] |  | E (the ratio is >10 and <50) | 10 to 100 nM |  | 
6 | C=CC(=O)Nc1ccc(F)c(C)c1Nc1ncc2cc(-c3c(Cl)c(OC)cc(OC)c3Cl)ccc2n1 [COMPOUND 33] |  | F (the ratio of [IC50 for FGFR1]/[IC50 for FGFR4] is less than 10) | 1 to 10 nM | > 1000 nM | 
7 | CNC(=O)c1cc(Oc2ccc(NC(=O)Nc3ccc(Cl)c(C(F)(F)F)c3)cc2)ccn1 [Sorafenib, reference compound] |  |  |  |  | tumor volume vs vehicle group ([7]; 30 mg/kg PO QD, Day 4 to Day 19, nude mice): Statistically significant reduction of tumor volumes
8 | C=CC(=O)Nc1cccc(C)c1Nc1cc2c(cn1)cc(-c1cc(OC)cc(OC)c1)c(=O)n2C [COMPOUND 18] |  |  | 10 to 100 nM | > 1000 nM | 
9 | C=CC(=O)N(C)c1ncc2cc(-c3c(Cl)c(OC)cc(OC)c3Cl)ccc2n1 [COMPOUND 7] | < 10 nM | A (the ratio is >500) |  | > 1000 nM | 
10 | C=CC(=O)Nc1ccccc1Nc1ncc(C)c(N2CCN(C(=O)Nc3ccc(C#N)cc3)CC2)n1 [COMPOUND 23] | 100 to 1000 nM | A (the ratio is >500) |  | > 1000 nM | 
11 | C=CC(=O)Nc1cccc(F)c1Nc1ncc2cc(-c3c(Cl)c(OC)cc(OC)c3Cl)ccc2n1 [COMPOUND 27] | < 10 nM | C (the ratio is ≥100 and <200) | 1 to 10 nM |  | selectivity score [S(10) @3 μM] [2]: ≤ 0.030
12 | COc1cc(CCc2cc(NC(=O)c3ccc(N4CC(C)NC(C)C4)cc3)n[nH]2)cc(OC)c1 (stereo not shown) [BGJ398, reference compound] |  |  |  |  | induction of apoptosis (caspase activity) [8]: induction of apoptosis, although at a higher concentration; tumor volume vs vehicle group ([7]; 20 mg/kg PO QD, entire study, nude mice): significant difference in tumor volume between BGJ398 (20 mg/kg PO QD) and vehicle groups was not observed

Continued, in another order:

Row | IC50 ([1]; 400 uM ATP, 90 minutes, 25 C) | Ratio FGFR1/FGFR4 [1] | IC50 [3] | IC50 [4] | SMILES | also measured
13 | < 10 nM | E (the ratio is >10 and <50) | < 1 nM |  | C=CC(=O)Nc1cccc(F)c1Nc1cc2c(cn1)cc(-c1c(Cl)c(OC)cc(OC)c1Cl)c(=O)n2C [COMPOUND 46] | 
14 |  |  | < 1 nM |  | C=CC(=O)Nc1cccc(C)c1Nc1ncc2cc(-c3c(Cl)c(OC)cc(OC)c3Cl)c(=O)n(C)c2n1 [COMPOUND 43, N-(2-((6-(2,6-dichloro-3,5-dimethoxyphenyl)-8-methyl-7-oxo-7,8-dihydropyrido[2,3-d]pyrimidin-2-yl)amino)-3-methylphenyl)acrylamide] | 
15 | < 10 nM | A (the ratio is >500) | 1 to 10 nM |  | C=CC(=O)Nc1cccc(C)c1Nc1ncc2cc(-c3c(Cl)c(OC)cc(OC)c3Cl)cnc2n1 [COMPOUND 26, N-(2-((6-(2,6-dichloro-3,5-dimethoxyphenyl)pyrido[2,3-d]pyrimidin-2-yl)amino)-3-methylphenyl)acrylamide] | 
16 | < 10 nM | E (the ratio is >10 and <50) | < 1 nM | > 1000 nM | C=CC(=O)Nc1cccc(C)c1Nc1ncc2nc(-c3c(Cl)c(OC)cc(OC)c3Cl)c(=O)n(C)c2n1 [COMPOUND 45, N-(2-((6-(2,6-dichloro-3,5-dimethoxyphenyl)-8-methyl-7-oxo-7,8-dihydropteridin-2-yl)amino)-3-methylphenyl)acrylamide] | 
17 | < 10 nM | A (the ratio is >500) | 1 to 10 nM |  | C=CC(=O)Nc1cccc(C)c1Nc1ncc2cc(-c3c(Cl)c(OC)cc(OC)c3Cl)cc(OC)c2n1 [COMPOUND 41] | selectivity score [S(10) @3 μM] [2]: ≤ 0.030
18 | < 10 nM | E (the ratio is >10 and <50) | < 1 nM | > 1000 nM | C=CC(=O)Nc1cccc(C)c1Nc1cc2c(cn1)cc(-c1c(Cl)c(OC)cc(OC)c1Cl)c(=O)n2C [COMPOUND 39] | 
19 | < 10 nM | B (the ratio is ≥200 and <500) | < 1 nM |  | C=CC(=O)Nc1ccccc1Nc1cc2c(cn1)cc(-c1c(Cl)c(OC)cc(OC)c1Cl)c(=O)n2C [COMPOUND 31] | 
20 | < 10 nM | C (the ratio is ≥100 and <200) | 1 to 10 nM |  | C=CC(=O)Nc1cc(N2CCOCC2)cc(C)c1Nc1ncc2cc(-c3c(Cl)c(OC)cc(OC)c3Cl)ccc2n1 [COMPOUND 53] | 
21 |  | D (the ratio is ≥50 and <100) |  | > 1000 nM | C=CC(=O)Nc1cccc(C)c1Oc1ncc2cc(-c3c(Cl)c(OC)cc(OC)c3Cl)ccc2n1 [COMPOUND 25A] | 
